Results from ChEMBL document CHEMBL1201862, “PubChem BioAssay data set” (2004).
Activity calls are given as the source filed them.

Assays:
[1] = activation of miR-122 Renilla sensor silencing – cell-based, Huh7 psiCHECK-miR122, Renilla luciferase, cherry-picked, dose response (AID 651956); format: functional;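 also: huh7 hepatoma cells stably carrying a psiCHECK-2 miR-122 sensor plasmid; renilla luciferase signal reporting endogenous miR-122 activity after 48 h compound exposure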
Large T antigen = Large T antigen (Simian virus 40, UniProt P03070); format: functional, Betapolyomavirus macacae;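 also: Confirmatory-stage PubChem screen for compounds that inhibit SV40 T antigen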
Large T antigen, sequence (P03070 whole entry): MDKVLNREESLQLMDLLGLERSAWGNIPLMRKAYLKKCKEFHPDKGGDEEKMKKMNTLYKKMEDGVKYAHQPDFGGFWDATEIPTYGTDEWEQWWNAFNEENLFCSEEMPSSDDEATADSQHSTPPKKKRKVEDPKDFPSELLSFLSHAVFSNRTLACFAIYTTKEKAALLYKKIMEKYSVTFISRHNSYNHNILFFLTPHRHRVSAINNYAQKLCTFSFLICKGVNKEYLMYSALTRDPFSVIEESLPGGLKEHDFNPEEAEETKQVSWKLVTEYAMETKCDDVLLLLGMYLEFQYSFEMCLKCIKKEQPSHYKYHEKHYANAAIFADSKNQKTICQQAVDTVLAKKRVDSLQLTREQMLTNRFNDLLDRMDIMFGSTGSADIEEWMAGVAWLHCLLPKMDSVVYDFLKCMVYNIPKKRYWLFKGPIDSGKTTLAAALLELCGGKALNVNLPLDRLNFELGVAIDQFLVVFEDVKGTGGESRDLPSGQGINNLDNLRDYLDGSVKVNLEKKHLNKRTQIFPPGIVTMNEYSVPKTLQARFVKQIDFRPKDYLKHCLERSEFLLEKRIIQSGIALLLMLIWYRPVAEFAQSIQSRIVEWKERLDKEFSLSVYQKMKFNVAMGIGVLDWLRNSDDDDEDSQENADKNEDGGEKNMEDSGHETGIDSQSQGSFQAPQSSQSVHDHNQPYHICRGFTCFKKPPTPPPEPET

Leucine aminopeptidase = target: T1, Leucine aminopeptidase (Plasmodium falciparum 3D7, UniProt Q8IL11); assay: P. falciparum M17LAP inhibitors, primary screen, biochemical, fluorogenic H-Leu-NHMec substrate, 1536-well (AID 1619); format: functional
T1 sequence (Q8IL11 whole entry): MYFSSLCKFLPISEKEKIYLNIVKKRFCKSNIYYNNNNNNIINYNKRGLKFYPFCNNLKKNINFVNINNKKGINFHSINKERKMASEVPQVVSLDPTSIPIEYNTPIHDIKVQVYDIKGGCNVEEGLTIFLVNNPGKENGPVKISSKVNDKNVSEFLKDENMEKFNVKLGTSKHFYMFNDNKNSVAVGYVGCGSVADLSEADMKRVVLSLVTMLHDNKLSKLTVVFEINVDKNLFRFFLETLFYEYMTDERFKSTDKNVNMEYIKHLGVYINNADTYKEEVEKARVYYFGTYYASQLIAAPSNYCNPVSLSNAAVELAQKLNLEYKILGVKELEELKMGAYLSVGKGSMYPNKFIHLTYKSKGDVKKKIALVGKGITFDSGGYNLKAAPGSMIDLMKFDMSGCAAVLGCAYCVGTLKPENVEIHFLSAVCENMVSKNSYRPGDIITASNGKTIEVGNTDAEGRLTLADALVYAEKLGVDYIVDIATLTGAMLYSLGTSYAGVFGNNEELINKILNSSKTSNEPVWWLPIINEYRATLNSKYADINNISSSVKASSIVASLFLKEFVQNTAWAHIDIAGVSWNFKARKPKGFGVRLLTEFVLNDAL

[2] = general mammalian cell viability loss – inhibitor set, cherry-pick, set 2, cytotoxicity control for miR-122 modulator project, dose response (AID 720697); format: functional, cell-based
[3] = target: T2, High affinity choline transporter 1 (Homo sapiens, UniProt Q9GZV3); assay: human choline transporter blockers, potency – cell-based, 5-point CRC, membrane potential dye, dose response (AID 504840); format: functional
T2 sequence (Q9GZV3 whole entry): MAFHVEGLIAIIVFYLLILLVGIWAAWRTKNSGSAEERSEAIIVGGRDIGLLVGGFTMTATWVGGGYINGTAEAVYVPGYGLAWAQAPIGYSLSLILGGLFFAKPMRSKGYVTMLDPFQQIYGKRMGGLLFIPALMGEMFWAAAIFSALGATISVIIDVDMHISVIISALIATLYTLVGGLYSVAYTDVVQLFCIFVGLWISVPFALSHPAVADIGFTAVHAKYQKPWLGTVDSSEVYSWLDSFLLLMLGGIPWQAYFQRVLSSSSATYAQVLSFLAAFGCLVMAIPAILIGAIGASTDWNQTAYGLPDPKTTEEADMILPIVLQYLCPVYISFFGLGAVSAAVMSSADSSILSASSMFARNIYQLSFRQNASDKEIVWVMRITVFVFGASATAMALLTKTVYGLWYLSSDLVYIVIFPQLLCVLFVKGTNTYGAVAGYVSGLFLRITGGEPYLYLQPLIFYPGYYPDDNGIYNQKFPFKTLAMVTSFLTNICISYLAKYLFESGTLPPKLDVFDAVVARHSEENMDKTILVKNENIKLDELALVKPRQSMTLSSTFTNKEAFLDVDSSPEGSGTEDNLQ

[4] = target: T2, High affinity choline transporter 1; assay: human choline transporter radiolabel uptake blockers – cell-based, 3H-choline uptake, CHT LV-AA trafficking mutant, CRC, dose response (AID 602208); format: functional
[5] = target: T2, High affinity choline transporter 1; assay: human choline transporter blockers, potency – cell-based, 10-point CRC, membrane potential dye, dose response (AID 588401); format: functional;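 also: membrane potential dye fluorescence of choline-evoked depolarization via CHT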
[6] = target: T3, ATP-dependent translocase ABCB1 (Homo sapiens, UniProt P08183); assay: inhibition of BCRP-mediated JC-1 efflux – Ig-MXP3 cells, flow cytometry, set 2, dose response (AID 504566); format: functional; conditions: read-out: EC50_MICROM_;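 also: flow cytometry median green fluorescence of retained JC-1 dye; potency of efflux pump inhibition measured as rising substrate retention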
T3 sequence (P08183 whole entry): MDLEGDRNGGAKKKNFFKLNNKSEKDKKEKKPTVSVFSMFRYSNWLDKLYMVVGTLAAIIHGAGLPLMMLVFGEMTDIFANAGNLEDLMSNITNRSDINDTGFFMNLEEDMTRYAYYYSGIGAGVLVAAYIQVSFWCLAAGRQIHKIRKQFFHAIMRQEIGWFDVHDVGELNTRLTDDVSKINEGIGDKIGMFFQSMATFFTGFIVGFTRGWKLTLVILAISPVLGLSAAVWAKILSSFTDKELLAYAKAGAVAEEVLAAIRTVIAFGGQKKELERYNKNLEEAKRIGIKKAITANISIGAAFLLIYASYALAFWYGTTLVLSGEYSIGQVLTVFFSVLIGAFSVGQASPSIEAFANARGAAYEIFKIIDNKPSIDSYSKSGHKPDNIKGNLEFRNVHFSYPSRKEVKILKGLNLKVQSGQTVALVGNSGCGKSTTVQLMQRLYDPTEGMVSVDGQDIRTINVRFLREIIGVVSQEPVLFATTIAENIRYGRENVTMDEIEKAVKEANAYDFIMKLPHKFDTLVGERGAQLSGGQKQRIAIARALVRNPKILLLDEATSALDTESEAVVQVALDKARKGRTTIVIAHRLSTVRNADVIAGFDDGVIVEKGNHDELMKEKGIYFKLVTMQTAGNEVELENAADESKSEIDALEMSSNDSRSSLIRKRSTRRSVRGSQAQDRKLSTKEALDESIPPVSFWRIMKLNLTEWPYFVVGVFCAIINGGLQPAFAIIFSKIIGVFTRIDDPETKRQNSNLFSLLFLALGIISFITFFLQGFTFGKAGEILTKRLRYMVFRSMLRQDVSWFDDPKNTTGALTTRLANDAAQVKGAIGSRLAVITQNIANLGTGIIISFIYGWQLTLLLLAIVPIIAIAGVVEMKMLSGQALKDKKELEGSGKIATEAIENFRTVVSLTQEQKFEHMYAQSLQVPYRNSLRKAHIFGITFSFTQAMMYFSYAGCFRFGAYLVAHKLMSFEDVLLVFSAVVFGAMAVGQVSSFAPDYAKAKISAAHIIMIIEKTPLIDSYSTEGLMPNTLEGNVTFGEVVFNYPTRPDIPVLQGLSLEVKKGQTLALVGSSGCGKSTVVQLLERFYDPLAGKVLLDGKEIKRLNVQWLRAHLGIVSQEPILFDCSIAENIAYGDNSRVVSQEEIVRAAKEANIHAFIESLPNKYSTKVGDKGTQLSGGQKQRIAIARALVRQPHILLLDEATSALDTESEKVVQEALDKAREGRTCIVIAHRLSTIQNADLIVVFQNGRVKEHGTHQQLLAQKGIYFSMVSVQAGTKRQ

[7] = target: T3, ATP-dependent translocase ABCB1; assay: P-gp JC-1 efflux blockade concentration-response – Jurkat-DNR cells, flow cytometry, set 2, dose response (AID 504569); format: functional; conditions: read-out: EC50_MICROM_;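 also: potency of pump inhibitors that raise cellular JC-1 green fluorescence up to the nicardipine level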
[8] = target: ADP-ribosylation factor GTPase-activating protein 1 (Rattus norvegicus, UniProt Q62848); assay: Fluorescence polarization-based biochemical high throughput dose response screening assay to identify inhibitors of ADP-ribosylation factor GTPase activating protein 1 (ARFGAP1).; format: functional
ADP-ribosylation factor GTPase-activating protein 1, sequence (Q62848 whole entry): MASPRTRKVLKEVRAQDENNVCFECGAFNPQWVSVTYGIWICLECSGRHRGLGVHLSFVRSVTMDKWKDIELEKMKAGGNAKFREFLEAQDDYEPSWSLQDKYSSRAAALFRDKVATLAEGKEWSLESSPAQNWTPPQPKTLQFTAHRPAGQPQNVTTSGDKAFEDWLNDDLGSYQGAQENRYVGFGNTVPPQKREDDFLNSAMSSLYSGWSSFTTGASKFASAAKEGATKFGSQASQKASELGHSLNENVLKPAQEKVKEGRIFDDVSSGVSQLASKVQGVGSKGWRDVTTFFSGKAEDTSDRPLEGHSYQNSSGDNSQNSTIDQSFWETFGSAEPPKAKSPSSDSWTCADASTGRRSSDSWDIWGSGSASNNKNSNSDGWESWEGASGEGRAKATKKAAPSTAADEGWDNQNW

With Cc1cccc(C)c1NC(=O)CSCC(=O)c1ccc(O)c(O)c1 the AC50 [1] was 15 µM (active), the IC50 (Large T antigen) was 12.8 µM (active) and the IC50 (Leucine aminopeptidase) was 20.9 µM (active). For the same compound, the AC50 [2] was 2.43 µM (active).
With O=C(Nc1ccc(S(=O)(=O)Nc2cnc3ccccc3n2)cc1)c1ccc(Cl)cc1Cl the IC50 [3] was 9.55 µM (active), the IC50 [4] was 2.82 µM (active) and the IC50 [5] was 3.25 µM (active).
With COc1cccc(C(=O)N2CCN(c3cc(-c4ccccc4)nc4cc(-c5cccc(Cl)c5)nn34)CC2)c1 the EC50 [6] was 2.6 µM (active) and the EC50 [7] was 2.22 µM (active).
For CCCOc1ccc(/C=N/NC(=O)c2ccc(Cn3cc([N+](=O)[O-])cn3)o2)cc1, the IC50 [8] was 49 µM (inactive).
